# The source made the active and inactive calls. The calls are words filed in the database; no cut-off is given here.
# How the values were obtained:
# Zika virus [1] = experiment: Antiviral activity against Zika virus 976 Uganda infected in human HepG2 cells assessed as protection against viral infection by measuring cell survival at 10 uM measured after 4 days by CellTiter-Glo luminescent cell viability assay relative to control; format: functional; conditions: HepG2, 96 h, time 4 day
# [2] = Cytotoxicity against human HepG2 cells assessed as cell viability at 10 uM measured after 4 days by CellTiter-Glo luminescent cell viability assay relative to control; format: cell-based; conditions: time 4 day, read-out: Activity
# [3] = Inhibition of DENV2 NS2B-NS3 protease using Bz-nKRR-MCA as substrate by FRET assay; design: species or system dengue virus type 2
# Zika virus [4] = experiment: Antiviral activity against Zika virus MR766 infected in human Huh-7 cells assessed as reduction in viral RNA synthesis incubated for 3 days by qRT-PCR analysis; format: functional, organism-based
# Zika virus [5] = experiment: Antiviral activity against Zika virus infected in 6 days old suckling ICR mouse assessed as reduction in monocyte infiltration in brain at 1 mg/kg, ip administered at day 1, 3 and 5 post-infection by immunohistochemistry analysis; format: functional, organism-based
# Zika virus [6] = experiment: Antiviral activity against Zika virus infected in 6 days old suckling ICR mouse assessed as reduction in virus titer in brain at 1 mg/kg, ip administered at day 1, 3 and 5 post-infection; format: functional, organism-based
# Zika virus [7] = experiment: Antiviral activity against Zika virus infected in 6 days old suckling ICR mouse assessed as reduction in brain damage at 1 mg/kg, ip administered at day 1, 3 and 5 post-infection by hematoxylin and eosin staining based analysis; format: functional, organism-based
# Huh-7 = experiment: Cytotoxicity against human Huh-7 cells; format: cell-based
# [8] = Inhibition of N-terminal thrombin cleavage fused His-tagged Zika virus ARD41644 NS2B Arg95Ala mutant (49 to 95 residues)/NS3 Arg29Gly mutant (1 to 170 residues) protease expressed in Escherichia coli BL21pLysS using Bz-nKRR-MCA peptide as substrate by FRET assay
# Zika virus [9] = experiment: Antiviral activity against Zika virus MR766 infected in human Huh-7 cells assessed as reduction in viral NS2B protein synthesis incubated for 3 days by Western blot analysis; format: functional, organism-based; conditions: dose microM 1-20, time 3.0 day
# Zika virus [10] = experiment: Antiviral activity against Zika virus infected in 6 days old suckling ICR mouse assessed as improvement in clinical scores at 1 mg/kg, ip administered at day 1, 3 and 5 post-infection and monitored daily for 6 days post-infection; format: functional, organism-based
# Zika virus [11] = experiment: Antiviral activity against Zika virus MR766 infected in human Huh-7 cells assessed as reduction in viral infection; format: functional, organism-based; conditions: MR766, Huh-7
# Zika virus [12] = experiment: Antiviral activity against Zika virus 976 Uganda infected in human HepG2 cells assessed as inhibition of viral infection measured after 4 days by CellTiter-Glo luminescent cell viability assay; format: functional, organism-based; conditions: HepG2, 96 h
# Zika virus [13] = experiment: Antiviral activity against Zika virus infected in 6 days old suckling ICR mouse assessed as improvement in body weight at 1 mg/kg, ip administered at day 1, 3 and 5 post-infection and monitored daily for 6 days post-infection; format: functional, organism-based
# [14] = Non- competitive inhibition of N-terminal thrombin cleavage fused His-tagged Zika virus ARD41644 NS2B Arg95Ala mutant (49 to 95 residues)/NS3 Arg29Gly mutant (1 to 170 residues) protease expressed in Escherichia coli BL21pLysS using varying levels Bz-nKRR-MCA as substrate by Lineweaver-Burk double reciprocal plot analysis
# Zika virus [15] = experiment: Antiviral activity against Zika virus infected in 6 days old suckling ICR mouse assessed as inhibition of viral replication in brain at 1 mg/kg, ip administered at day 1, 3 and 5 post-infection by immunohistochemical staining; format: functional, organism-based
# [16] = Binding affinity to N-terminal thrombin cleavage fused His-tagged Zika virus ARD41644 NS2B Arg95Ala mutant (49 to 95 residues)/NS3 Arg29Gly mutant (1 to 170 residues) protease expressed in Escherichia coli BL21pLysS by MST method
# Zika virus [17] = experiment: Antiviral activity against Zika virus infected in 6 days old suckling ICR mouse assessed as improvement in survival rate at 1 mg/kg, ip administered at day 1, 3 and 5 post-infection and monitored daily for 6 days post-infection; format: functional, organism-based
# [18] = Cytotoxicity against human HepG2 cells assessed as cell viability at 100 uM measured after 4 days by CellTiter-Glo luminescent cell viability assay relative to control; format: cell-based; conditions: time 4 day, read-out: Activity
smiles,measurement,setting,value
COc1cc(C(=O)c2c(-c3ccccc3)[nH]c3ccc(Br)cc23)cc(OC)c1O,survival at 10 µM,Zika virus [1],23%
same,"viability at 96 h, 10 µM",[2],100%
COC(=O)c1[nH]c2ccc(Cl)cc2c1C(=O)c1cc(OC)c(O)c(OC)c1,IC50,[3],112 µM
same,IC50,"Zika virus [4]; MR766, Huh-7, 72 h",13.9 µM
same,inhibition,Zika virus [4]; time 3.0 day,Dose-dependent effect
same,Activity,Zika virus [5],Active
same,Activity,Zika virus [6],Active
same,Activity,Zika virus [7],Active
same,Activity,Huh-7,Non-Toxic
same,survival at 10 µM,Zika virus [1],47%
same,IC50,[8],158 µM
same,Activity,Zika virus [9],Dose-dependent effect
same,Activity,Zika virus [10],Active
same,EC50,Zika virus [11],13.9 µM
same,IC50,Zika virus [12],13.7 µM
same,Activity,Zika virus [13],Active
same,Ki,[14],280 µM
same,Activity,Zika virus [15],Active
same,"viability at 96 h, 10 µM",[2],100%
same,Kd,[16],> 1000 µM
same,Activity,Zika virus [17],Active
CCOC(=O)c1[nH]c2ccc(OC)cc2c1Cc1cc(OC)c(O)c(OC)c1,survival at 10 µM,Zika virus [1],28%
same,"viability at 96 h, 10 µM",[2],100%
CCOC(=O)c1[nH]c2ccccc2c1C(=O)c1cc(OC)c(O)c(OC)c1,survival at 10 µM,Zika virus [1],0%
same,"viability at 96 h, 10 µM",[2],100%
COC(=O)c1[nH]c2ccc(Cl)cc2c1Cc1cc(OC)c(O)c(OC)c1,survival at 10 µM,Zika virus [1],23%
same,"viability at 96 h, 10 µM",[2],100%
COC(=O)c1[nH]c2ccc(OC)cc2c1C(=O)c1cc(OC)c(O)c(OC)c1,survival at 10 µM,Zika virus [1],49%
same,"viability at 96 h, 10 µM",[2],100%
CCOC(=O)c1[nH]c2ccc(OC)cc2c1C(=O)c1cc(OC)c(O)c(OC)c1,survival at 10 µM,Zika virus [1],47%
same,"viability at 96 h, 10 µM",[2],100%
NC(=O)c1ncn([C@@H]2O[C@H](CO)[C@@H](O)[C@H]2O)n1 [RIBAVIRIN],"viability at 96 h, 100 µM",[18],100%
CCOC(=O)c1[nH]c2ccc(Br)cc2c1C(=O)c1cc(OC)c(O)c(OC)c1,survival at 10 µM,Zika virus [1],66%
same,IC50,[8],33 µM
same,EC50,Zika virus [11],16.2 µM
same,IC50,Zika virus [12],15.8 µM
same,Ki,[14],48 µM
same,"viability at 96 h, 10 µM",[2],100%
same,Kd,[16],300 µM
CCOC(=O)c1[nH]c2ccc(O)cc2c1C(=O)c1cc(OC)c(O)c(OC)c1,survival at 10 µM,Zika virus [1],0%
same,"viability at 96 h, 10 µM",[2],94%
COC(=O)c1[nH]c2ccc(Cl)cc2c1Cc1cc(OC)cc(OC)c1,survival at 10 µM,Zika virus [1],16%
same,IC50,[8],770 µM
same,"viability at 96 h, 10 µM",[2],100%
COC(=O)c1[nH]c2ccc(Br)cc2c1C(=O)c1cc(OC)c(O)c(OC)c1,survival at 10 µM,Zika virus [1],22%
same,"viability at 96 h, 10 µM",[2],100%
COC(=O)c1[nH]c2ccc(Br)cc2c1Cc1cc(OC)c(O)c(OC)c1,survival at 10 µM,Zika virus [1],2%
same,"viability at 96 h, 10 µM",[2],100%
CCOC(=O)c1[nH]c2ccc(Br)cc2c1Cc1cc(OC)c(O)c(OC)c1,survival at 10 µM,Zika virus [1],20%
same,"viability at 96 h, 10 µM",[2],100%
CCOC(=O)c1[nH]c2ccccc2c1Cc1cc(OC)c(O)c(OC)c1,survival at 10 µM,Zika virus [1],0%
same,"viability at 96 h, 10 µM",[2],100%

# — ChEMBL document CHEMBL4725430, “Discovery of Zika Virus NS2B/NS3 Inhibitors That Prevent Mice from Life-Threatening Infection and Brain Damage” (ACS Med Chem Lett, 2020)
